Source: the NIST ThermoML archive (doi:10.1016/j.jct.2016.01.028)
± gives the expanded uncertainty stated by the source.

Conditions: 102 kPa, Liquid, Frequency=5 MHz, Single path-length method

SMILES: CCCCC(=O)[O-].C[NH2+]CCO [2-hydroxy-N-methylethanaminium pentanoate]
- speed of sound (293.15 K): 1537 ± 2.6 m/s
- speed of sound (298.15 K): 1516.3 ± 2.6 m/s
- speed of sound (303.15 K): 1503.7 ± 2.6 m/s
- speed of sound (308.15 K): 1486.5 ± 2.6 m/s
- speed of sound (313.15 K): 1471 ± 2.6 m/s
- speed of sound (318.15 K): 1457 ± 2.6 m/s
- speed of sound (323.15 K): 1440 ± 2.6 m/s
- speed of sound (328.15 K): 1424.6 ± 2.6 m/s
- speed of sound (333.15 K): 1412.8 ± 2.6 m/s
- speed of sound (338.15 K): 1397.1 ± 2.6 m/s
- speed of sound (343.15 K): 1381.9 ± 2.6 m/s

SMILES: CCCC(=O)[O-].C[NH2+]CCO [N-methyl-2-hydroxyethylammonium butanoate]
- speed of sound (293.15 K): 1576.8 ± 2.6 m/s
- speed of sound (298.15 K): 1562.9 ± 2.6 m/s
- speed of sound (303.15 K): 1548 ± 2.6 m/s
- speed of sound (308.15 K): 1529.7 ± 2.6 m/s
- speed of sound (313.15 K): 1511.9 ± 2.6 m/s
- speed of sound (318.15 K): 1499.4 ± 2.6 m/s
- speed of sound (323.15 K): 1481.3 ± 2.6 m/s
- speed of sound (328.15 K): 1467.2 ± 2.6 m/s
- speed of sound (333.15 K): 1451.2 ± 2.6 m/s
- speed of sound (338.15 K): 1436.7 ± 2.6 m/s
- speed of sound (343.15 K): 1419.4 ± 2.6 m/s
